Like-named read-outs stand apart in the source and are kept apart here.
Tests used:
endogenous PTH 1-84 = details: healthy volunteers, no further suppression at higher doses, cited from earlier work
[1] = test system: individuals with hypoparathyroidism; type: in vivo, human; details: for Active Vitamin D dose / Calcium supplement dose / Serum Calcium: mean of Compound 1 group
Description: PaTHway is a phase 3, multicenter (North America and Europe), randomized, double-blind, placebo-controlled, parallel-group, 26-week trial with an open-label extension of 156 weeks that evaluated the efficacy, safety, and tolerability of once-daily Compound 1 as PTH replacement therapy in individuals with hypoparathyroidism. All participants who completed the 26- week blinded treatment period were allowed to enroll in the 156-week open-label extension period. (ClinicalTrials.gov identifier: NCT04701203; EudraCT No.: 2020-003380-26).
Once enrolled, participants were randomized 3:1 into 2 treatment groups: Compound 1 18 μg PTH(1-34)/day or placebo (excipient solution) mimicking 18 μg/day, both co-administered with conventional therapy (active vitamin D and elemental calcium).
Randomization was stratified by etiology of hypoparathyroidism (postsurgical vs. non-surgical). In addition to frequent laboratory visits to measure serum calcium levels, the blinded treatment period included 10 clinic visits over 26 weeks. Once-daily treatment with Compound 1 or placebo was delivered by a modified Ypsomed UnoPen Fix pen injector using 31-gauge, 5 mm pen needles to deliver doses of 6-30 μg/injection in a volume of ≤100 μL to either abdomen or anterior thigh, rotating injection sites.
All participants were initially prescribed Compound 1 18 μg PTH(1-34)/day or a corresponding volume of placebo and were individually and progressively titrated to an optimal dose (allowable range 6-60 μg/day) in increments of 3 μg/day. Titration of study drug and conventional therapy was performed according to a protocol-specified algorithm guided by serum calcium values (Example 2). The algorithm was intended to facilitate independence from conventional therapy by discontinuation of active vitamin D and calcium in response to reestablishment of physiological PTH signaling with Compound 1 treatment. In the setting of normocalcemia, the protocol directs incremental increases in study drug (Compound 1 or placebo) accompanied by stepwise reductions of active vitamin D by 33-50% of the starting dose, followed by reductions of calcium in at least 1500 mg/day increments once vitamin D has been discontinued.
Participants were permitted to take elemental calcium <600 mg/day as a nutritional supplement if required to meet the generally recommended dietary intakes of calcium.
Treatment with Compound 1 was carried out in accordance with Example 1.

palopegteriparatide [Compound 1]
dose that fully suppresses endogenous PTH 1-84 (endogenous PTH 1-84): 16 µg/day | time to complete discontinuation of active vitamin D ([1]; Compound 1 group): ≤ 8 weeks | SAEs considered related to treatment ([1]; in vivo): one | participants reporting SAEs ([1]; in vivo): 8.2% | Active Vitamin D dose ([1]; week 0): 0.992 µg | Calcium supplement dose ([1]; week 0): 1748.03 mg | Serum Calcium ([1]; week 0): 8.8 mg/dL | Active Vitamin D dose ([1]; week 2): 0.098 µg | Calcium supplement dose ([1]; week 2): 1524.1 mg | Serum Calcium ([1]; week 2): 9.8 mg/dL | Active Vitamin D dose ([1]; week 4): 0.008 µg | Calcium supplement dose ([1]; week 4): 548.77 mg | Serum Calcium ([1]; week 4): 9.6 mg/dL | Active Vitamin D dose ([1]; week 6): 0.004 µg | Calcium supplement dose ([1]; week 6): 229.1 mg | Serum Calcium ([1]; week 6): 9.7 mg/dL | Active Vitamin D dose ([1]; week 8): 0 µg | Calcium supplement dose ([1]; week 8): 105.74 mg | Serum Calcium ([1]; week 8): 9.5 mg/dL | Active Vitamin D dose ([1]; week 10): 0 µg | Calcium supplement dose ([1]; week 10): 114.17 mg | Serum Calcium ([1]; week 10): 9.5 mg/dL | Active Vitamin D dose ([1]; week 12): 0 µg | Calcium supplement dose ([1]; week 12): 102.46 mg | Serum Calcium ([1]; week 12): 9.5 mg/dL | Active Vitamin D dose ([1]; week 16): 0 µg | Calcium supplement dose ([1]; week 16): 182.38 mg | Serum Calcium ([1]; week 16): 9.3 mg/dL | Active Vitamin D dose ([1]; week 20): 0 µg | Calcium supplement dose ([1]; week 20): 300.83 mg | Serum Calcium ([1]; week 20): 9.3 mg/dL | Active Vitamin D dose ([1]; week 26): 0 µg | Calcium supplement dose ([1]; week 26): 274.17 mg | Serum Calcium ([1]; week 26): 8.9 mg/dL | mean serum calcium (sCa) levels ([1]; when adequately titrated, all study visits): in the normal range

Compound 5: polypeptide having the sequence AVAEIQLMHQRAKWIQDARR RAFLHKLIAEIHTAEI, SEQ ID NO:122 (AVAEIQLMHQRAKWIQDARRRAFLHKLIAEIHTAEI; Artificial random coil) [reference compound]
dose able to suppress endogenous PTH 1-84 (endogenous PTH 1-84; daily dosing): 60 µg
